Here are results for 62 compounds from a melting point compilation (Tetko et al.; mined from patent text by program, amines drawn as free bases though some values may be those of a salt).

SMILES strings stand for the structures. Residues, ends and D or L forms follow the SMILES beside them.

Broadly, the melting point is the temperature of the solid-liquid transition.

Compound `CC(C)(C)OC(=O)N1CCC(c2nc(-c3ccncc3)c(-c3ccc(F)cc3)[nH]2)CC1` had a melting point of 157 to 160 °C. With `COC(=O)C(Br)c1nsc2ccc(-n3c(=O)cc(C(F)(F)F)n(C)c3=O)cc12` (configuration not stated) the figure was 84 to 87 °C; with `Cc1ccc(N2C(=O)C3=C(CCCC3)C2=O)c2c1OC(CO)C2` (configuration not stated), 177 to 179 °C.

In the case of `O=C(Nc1cn2cc(Cl)ccc2n1)c1ccc(C2(C(=O)O)CCCCC2)cc1`, the melting point stood at 288 °C.

Regarding `COc1cc(C(=O)N2Cc3ccc(C(=O)NCc4ccc(C)cc4)n3Cc3ccccc32)ccc1-c1ccccc1C`, the melting point was 179 to 180 °C. Regarding `CCOC(=O)N(c1ccccc1N=NC(NC(=O)CCl)(C(=O)OCC)C(=O)OCC)c1cccc(C)c1C`, the melting point fell in the range of 120 to 122 °C. The figure for `CC(C)(C)c1cc(CSCCC(=O)ON(Cc2ccccc2)Cc2ccccc2)cc(C(C)(C)C)c1O` is 84 to 86 °C.

Consider `Cc1nc(C(C)C)nc(C)c1N1CCCn2c1nc1c(Cl)ccc(C(OC(F)F)C(F)(F)F)c12` (configuration not stated), for which the melting point is 204 to 206 °C.

Turning to `NC(=O)CC(NC(=O)C(N)CO)C(=O)NC(Cc1ccccc1)C(N)=O` (stereo not drawn) (H-Ser-Asn-Phe-NH2; configuration not given here), the melting point lay within 169 to 172 °C. The figure for `O=C1C(c2ccccc2)=C(c2ccccc2)C(=O)N1CCc1ccc(F)cc1` is 153 to 154 °C. The figure for `CC(C)(C)OC(=O)C=CC1C(C(=O)OC(C#N)c2ccc(F)c(Oc3ccccc3)c2)C1(C)C` (configuration not stated) is 114 °C. With `CC(C)(CCCN)C(Cc1c[nH]c([N+](=O)[O-])n1)=NO` the figure was 136 to 137 °C; with `COc1ccc2c(c1)cc(C(=O)Nc1nc(-c3cc(OC)c(C)cc3OC)c(CCC3CCCCC3)s1)n2CC(=O)O`, 163 to 165 °C. In the case of `Cc1nn(-c2ccc(C#N)c(Cl)c2)c(C)c1Oc1ccc(C(=O)N2CCOCC2)cc1`, the melting point lay in the range of 156 to 157 °C. `CC(C)CCC(=O)N[C@@H](Cc1ccccc1)C(=O)CSCc1ccco1` gave a melting point of 68 to 71 °C. The figure for `COc1ccc(NCCCN)c2c1C(=O)c1ccccc1C2=O` is 108 to 110 °C; for `CC(C)(C)[Si](OCC#Cc1ccc2ncc3c(c2c1)C(O)CCC3)(c1ccccc1)c1ccccc1` (configuration not stated) it is 132 to 133 °C; for `CCCCCCCCCCCCC1=C(O)C(=O)NC1=O` it is 108 to 109 °C. The figure for `CC(=O)Nc1nc(N2CCc3ccccc3CC2)c([N+](=O)[O-])c(=O)[nH]1` is above 200 °C; for `O=C1c2ccccc2C(O)N1CCN1CCC(Cc2c[nH]c3ccc(F)cc23)CC1` (racemic) it is 183 °C.

In turn, `CC1Cc2cccc(S(N)(=O)=O)c2O1` (configuration not stated) returned a melting point of 174 to 177 °C. Take `CCOC(=O)C(CC)Sc1nc2c([nH]1)c(=O)n(C)c(=O)n2C` (configuration not stated): the melting point is 175 °C. Take `O=C(NCCO)/C(=C/c1ccc(OC2CC2)cc1)NC(=O)c1ccc(OCCC2CC2)cc1`: the melting point was 132 to 134 °C. The figure for `CN1CCN(CCCNc2ncc3cc(-c4c(Cl)cccc4Cl)c(N)nc3n2)CC1` is 208 to 211 °C. In the case of `COC(=O)C(NC(CO)c1ccccc1)C1CC2CCC(C1)N2` (configuration not stated), the melting point was 124 °C.

`CCCCCC(=O)Nc1ccn(C2OC(CO)C(O)C2O)c(=O)n1` (configuration not stated) gave a melting point of 131 to 136 °C. With `COc1ccc(-c2ccccc2[N+](=O)[O-])cc1` the figure was 55 to 56 °C; with `CC(CO)(Cc1c[nH]c2ccccc12)NC(=O)OC1C2CC3CC(C2)CC1C3` (configuration not stated), 72 to 74 °C; with `CCCN(CCC)Cc1nc(-c2ncn3c2CN(C)C(=O)c2c-3cccc2C(F)(F)F)no1`, 216 to 218 °C. The figure for `N#Cc1ccc(OCc2ccsc2)cc1OC(C(=O)O)c1ccccc1C(F)(F)F` (racemic) is 38 to 40 °C; for `CC(=O)NC(C)Cn1cc(-c2ccccc2)c2ccccc2c1=O` (configuration not stated) it is 177 °C. Compound `O=C(NCCCn1cncn1)Nc1cccc(C(F)(F)F)c1` showed a melting point of 97 to 99 °C.

Compound `COc1ccncc1Nc1nc(N2CCOCC2)nc(-n2c(C(F)F)nc3ccccc32)n1` came in with a melting point of 161 to 163 °C.

`CCCCC(=O)NC1CCN(CCNC(=O)c2nn(C(C)C)c3ccccc23)CC1` showed a melting point of 107 to 109 °C. For `CC(C)(O)c1ccc(Cl)nc1`, the melting point was 67 to 71 °C. The figure for `COc1cc2nc3ccc(SC)cc3sc-2cc1=O` is 222 to 224 °C. With `COc1cccc(COc2ncc(F)c(N/N=C/c3cccs3)n2)c1` the figure was 136 to 139 °C; with `CCC(C)(CC)C(=O)O[C@H]1C[C@H](O)C=C2C=C[C@H](C)[C@H](CC[C@@H]3C[C@@H](O)CC(=O)O3)[C@H]21`, 152 to 154 °C. For `O=C(O)c1cn(CC(F)(F)F)c2c(F)c(F)c(F)cc2c1=O`, the melting point fell in the range of 205 to 207 °C.

In the case of `COC(=O)c1cc(Cl)ccc1NC(=O)N(C)C`, the melting point was 114 °C. The figure for `CCCCOc1nc(N)nc2[nH]cnc12` is 165 °C.

Take `FC(F)(F)c1ccc2sc(=Nc3ccccc3)sc2c1`: the melting point was 122 to 123 °C. The figure for `CC(N(O)C(N)=O)C1(OCc2nc3ccccc3s2)C=CC(c2ccccc2)=CC1` (configuration not stated) is 190 to 191 °C; for `O=C(NCCOc1cc(-c2ccccc2)on1)c1ccccc1` it is 129 to 130 °C; for `Cc1nc(N)c2nc(CO)n(NC3CCC3)c2c1C` it is 211 to 213 °C. The figure for `CCOC(=O)c1cn(CCO)c2nc(-c3ccncc3)c(F)cc2c1=O` is 223 to 225 °C. The figure for `Cc1cc(SC2=C(O)CC(C3CCCC3)(C3CCCC3)OC2=O)c(C(C)(C)C)cc1CO` is 158 to 160 °C; for `O=C(O)C(=O)N1CCC(Oc2ccc(F)cc2)CC1` it is 147 to 149 °C. Compound `O=CNc1nc(-c2cccnc2)c(Cl)s1` displayed a melting point of 229 °C. `C=CC(=O)NCCOC(C)(C)OCCNC(=O)C=C` yielded a melting point of 94 to 95 °C. With `COC(=O)n1c(SCc2ccccn2)nc2ccccc21` the figure was 78 °C. With `CCc1cccc(C)c1CNc1cc(C(=O)N(C)C)nc2c(CO)c(C)[nH]c12` the figure was 280 °C; with `CCOc1cc2c(cc1O)C(=O)CC1C2CCC2(C)C(O)CCC12` (configuration not stated), 194 to 196 °C; with `CC12CCC(C(=Cc3ccc(O)cc3)C1=O)C2(C)C` (configuration not stated), 220 °C. `CC(=O)NCc1ccc(CN2CCN(c3ccc(F)cc3[N+](=O)[O-])CC2)cc1` gave a melting point of 94.5 to 96 °C. With `COC(=O)c1cncn1C(c1ccccc1)c1ccccn1` (configuration not stated) the figure was 96.3 °C.

In the case of `Cc1c(N)cccc1CO`, the melting point fell in the range of 104 to 106 °C.

Take `CC(C)(C)CCNC(=O)c1ccc(C#N)cc1`: the melting point was in the range of 154 to 157 °C.

On to `CC(Oc1ccc(Oc2ncc(Cl)cc2F)cc1)C(=O)Nc1ccc(OC(F)(F)F)cc1` (configuration not stated), for which the melting point fell in the range of 92 to 93.5 °C. The figure for `COC=C(C(=O)OC)n1ccc2ccc(-c3csc(-c4ccc(C)cc4)n3)cc21` is 145 to 146 °C; for `CCOc1ccc(-c2ccc(C3COC(c4c(Cl)cncc4Cl)=N3)cc2)cc1` (configuration not stated) it is 121 to 122 °C. The figure for `CCOC(=O)c1[nH]c2c(Cl)ccc(Cl)c2c1C` is 107 to 108 °C.
